A word on the IC50: it is the concentration needed to halve the response being measured. A word on the Km: it is the substrate concentration at which the rate is half of its maximum.

These results are taken from patent US20050170391A1, “TAUT1 transporters expressed in blood brain barrier cells” (Xenoport, Inc., priority 2004, published 2005).

For series [1], the target named is T1, TAUT1 (Homo sapiens, UniProt P31641).
T1 sequence (P31641 1-620): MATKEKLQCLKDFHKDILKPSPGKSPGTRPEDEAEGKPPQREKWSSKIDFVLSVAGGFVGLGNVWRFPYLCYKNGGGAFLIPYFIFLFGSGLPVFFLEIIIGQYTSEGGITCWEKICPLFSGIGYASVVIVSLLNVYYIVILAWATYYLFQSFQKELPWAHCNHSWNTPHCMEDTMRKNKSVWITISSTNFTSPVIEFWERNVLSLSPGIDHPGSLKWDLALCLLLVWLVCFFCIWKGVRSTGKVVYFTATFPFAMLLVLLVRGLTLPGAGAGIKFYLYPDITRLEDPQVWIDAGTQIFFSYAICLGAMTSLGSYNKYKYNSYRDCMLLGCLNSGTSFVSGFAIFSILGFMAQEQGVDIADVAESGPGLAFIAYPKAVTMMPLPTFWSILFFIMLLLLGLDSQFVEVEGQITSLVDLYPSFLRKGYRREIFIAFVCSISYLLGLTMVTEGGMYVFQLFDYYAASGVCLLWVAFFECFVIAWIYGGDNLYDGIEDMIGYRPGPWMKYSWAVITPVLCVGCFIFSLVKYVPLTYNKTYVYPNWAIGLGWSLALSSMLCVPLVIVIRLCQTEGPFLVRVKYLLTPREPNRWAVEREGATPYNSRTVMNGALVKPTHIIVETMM
To be noted: reported value, source not given; cited from earlier work.

Series [2] addresses T1, TAUT1. Briefly: ^3H-taurine uptake by Xenopus oocytes injected with TAUT1 cRNA. It is filed as cell-based. Set-up: expressed in transfected cells; host or cells: Xenopus oocytes injected with TAUT1 cRNA. To be noted: oocytes expressing TAUT1 vs noninjected controls (FIG. 2).
The target of series [3] is T1, TAUT1. Put plainly: hTAUT1 competition uptake assay in HEK-TREx-TAUT1 cells. It is filed as cell-based. Details: expressed in transfected cells; host or cells: HEK-TREx cells (HEK-TREx-TAUT1 inducible line). The method, then:
A modified competition uptake assay was developed to determine the ability of a test compound(s) to inhibit the uptake of radiolabeled substrates into HEK-TREx-TAUT1 cells induced to over-express hTAUT. The results are stated as affinities (IC50).
The competition uptake assay were prepared as follows: Compounds were prepared for assay by diluting a 100 mM stock concentration (in DMSO) to the appropriate working concentration. Typically, seven-point dose response curves were prepared starting at a final assay concentration of 1 mM and carrying out three-fold dilutions. These dilutions were prepared by making a working “compound” plate that contained a 2× solution of the desired starting concentration of each test compound in duplicate in row A of a v-bottom microtiter plate. Six 3-fold serial dilutions (from row B to G) were made into the HBSS assay buffer (9.8 g/L Hank's Balance Salts (Sigma; H-1387), 2.6 g/L HEPES (10 mM) (Sigma; H-3375), 0.35 g/L NaHCO3 (4.2 mM) (Sigma; S-6297), pH to 7.4 with 5N NaOH) (with the appropriate amount of DMSO so that the DMSO concentration remains constant at all dilutions). The resulting “compound” plate contained serial dilutions of six compounds in duplicate.
^3H-GABA was diluted into HBSS buffer to a final concentration of 4,000 cpm/μl. Enough solution was prepared to allow addition of 25 μl/well (the final concentration was 100,000 cpm/well).
HEK-TREx-hTAUT cells, plated in 96-well plates and treated with tetracycline (or tet analog (e.g., doxycycline), were removed from the incubator. Growth media was removed from the cells, and the cells were washed twice in room temperature HBSS (100 μl/well/wash) using a 96-well plate washer (Bio Tek ELX405). Alternatively, cells were washed manually with equivalent volumes using a multichannel pipettor. Immediately before beginning the assay, the final 100 μl wash solution was removed from the cells by aspiration.
Using a 96-well pipettor, 25 μl from the “compound” plate was added to each well of the cell plate. The assay was started by adding 25 μl of the ^3H-GABA working solution. The plate was incubated at room temperature for 15 minutes. The assay was stopped by washing the cells four times with ice-cold HBSS buffer using a ELX 405 plate washer (100 μl buffer/well/wash) having an angled buffer dispenser.
Scintillation fluid (200 μl) (Optiphase Supermix (Perkin Elmer) was added to each well, and the plate was covered with a 96-well adhesive plate cover and placed on a shaker for 10 minutes. The plates were counted on a 96-well plate scintillation counter for 60 sec/well. The data were analyzed using a sigmoidal dose response curve-fitting program ((Prism, GraphPad, Inc, San Diego, Calif.; equation: one-site competition).
FIG. 7 depicts the results of a competition experiment using HEK-TREx-TAUT1 cells. ^3H-taurine was used as the substrate and unlabeled taurine was used as the competitor. The competition experiment was performed as described in Example 7. Non-specific uptake was determined by measuring the uptake into cells not induced to express the transporter (“no tet”). […] In control cells, uptake of labeled taurine remained at background levels and was largely unaffected by an excess of unlabeled taurine.
These four compounds, IAA, R,S-Baclofen, GPA, and GABA, were tested in both competition and direct uptake assays. One notable difference in the competition assay format compared to the literature is that ^3H-GABA was used, rather than ^3H-taurine, as the radiolabel. […] Therefore, to develop a competition assay that is as sensitive as possible, ^3H-GABA, a substrate with a much […] affinity, was used.

A further series addresses PgP (Homo sapiens, UniProt P08183). Put plainly: Cellular transwell monolayer efflux assay, MDCK cells with TREx-PgP. The method, then:
A third type of efflux transporter assay is the cellular transwell monolayer efflux assay. In this assay, cells expressing efflux transporters, such as MDCK cells containing the TREx-PgP expression vector (Invitrogen Inc., Carlsbad, Calif.), are seeded and grown in transwell dishes on filter membranes made of substances such as polycarbonate. The cells form a polarized monolayer. The transwell dishes have apical and basolateral chambers that are separated by the filter membrane on which the polarized monolayer is situated. Assays are performed by placing a test compound in either the apical or basolateral chamber, followed by sampling the opposite chamber after a predetermined period of time such as 60-120 minutes and measuring the amount of the test compound. The test compound can be measured by methods such as radiolabel detection or LC-MS-MS analysis. Assays are performed in the presence and absence of an efflux transporter inhibitor or competitor. Efflux transporter inhibitors or competitors increase apical to basolateral transport and decrease basolateral to apical transport of compounds that are efflux transporter substrates. Apparent permeability (Papp) of test compounds is measured. […] Test compounds that generate ratios between 1.5 and 2.0 require additional testing to determine if they are efflux transporter substrates. An agent, conjugate, or conjugate moiety that is a TAUT1 substrate and also generates a ratio of greater than 2.0 can be modified.
MDCK cells transfected with the tetracycline-inducible TREx-PgP expression vector were seeded on polycarbonate filter membranes in transwell dishes and grown for 3-5 days, yielding a polarized monolayer with tight junctions between cells. […] The left set of bars depicts apical to basolateral transport, while the right set of bars depicts basolateral to apical transport.

Substrate in series [4]: NCCCC(=O)O
Put plainly: cells, lysate or membranes. To be noted: other: direct uptake into HEK-TREx-TAUT1 cells, +TET minus no TET; 15 min, room temperature.

[5] abbreviates: 2.5 nM ^3H-vinblastine, in the presence of 250 μM verapamil vs absence (FIG. 6).

“And” between values parts separate entries of the source, which are not always exact repeats. Equal entries are not always repeated. A value given as a limit tells only on which side of the number the result lay.

Chain of PgP (P08183 whole entry): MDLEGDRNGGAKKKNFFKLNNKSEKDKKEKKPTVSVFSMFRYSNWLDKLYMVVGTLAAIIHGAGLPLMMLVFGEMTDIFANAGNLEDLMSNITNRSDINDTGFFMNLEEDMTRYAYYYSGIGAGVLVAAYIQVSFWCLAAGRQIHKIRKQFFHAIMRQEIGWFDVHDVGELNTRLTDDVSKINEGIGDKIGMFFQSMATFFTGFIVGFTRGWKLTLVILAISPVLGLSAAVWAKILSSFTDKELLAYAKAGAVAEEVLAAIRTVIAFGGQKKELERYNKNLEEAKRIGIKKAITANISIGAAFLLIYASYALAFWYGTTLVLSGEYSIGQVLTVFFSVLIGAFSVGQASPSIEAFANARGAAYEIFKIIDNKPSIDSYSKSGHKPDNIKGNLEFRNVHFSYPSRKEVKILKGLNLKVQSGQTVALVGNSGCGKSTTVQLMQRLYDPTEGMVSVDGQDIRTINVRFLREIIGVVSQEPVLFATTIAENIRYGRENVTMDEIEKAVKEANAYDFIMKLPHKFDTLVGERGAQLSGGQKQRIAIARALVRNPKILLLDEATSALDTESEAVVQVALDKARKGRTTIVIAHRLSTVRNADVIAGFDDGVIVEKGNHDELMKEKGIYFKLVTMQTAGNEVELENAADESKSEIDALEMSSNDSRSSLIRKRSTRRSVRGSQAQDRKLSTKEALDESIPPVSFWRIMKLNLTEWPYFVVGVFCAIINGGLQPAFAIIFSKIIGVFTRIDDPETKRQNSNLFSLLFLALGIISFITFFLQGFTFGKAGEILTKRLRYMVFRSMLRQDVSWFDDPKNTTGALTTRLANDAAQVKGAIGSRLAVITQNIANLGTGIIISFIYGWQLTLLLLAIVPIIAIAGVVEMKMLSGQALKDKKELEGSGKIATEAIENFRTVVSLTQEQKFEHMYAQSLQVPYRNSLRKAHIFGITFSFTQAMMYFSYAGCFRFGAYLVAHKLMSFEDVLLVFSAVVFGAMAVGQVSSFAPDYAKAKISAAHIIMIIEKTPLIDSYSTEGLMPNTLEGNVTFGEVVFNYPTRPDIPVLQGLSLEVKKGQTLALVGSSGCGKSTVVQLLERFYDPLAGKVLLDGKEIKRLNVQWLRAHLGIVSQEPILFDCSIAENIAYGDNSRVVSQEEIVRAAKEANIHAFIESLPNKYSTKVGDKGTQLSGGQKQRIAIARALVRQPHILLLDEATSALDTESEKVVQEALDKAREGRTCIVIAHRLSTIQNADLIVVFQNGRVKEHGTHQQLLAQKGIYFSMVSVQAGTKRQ

Take `NCCS(=O)(=O)O` [Taurine]: the “Reported Affinity for TAUT1” value at TAUT1 [1] is given as 0.1 mM. Further, the “^3H-taurine uptake” value on TAUT1 [2] is given as “higher levels of ^3H-taurine uptake than noninjected controls”. The molecule also displayed an IC50 at TAUT1 [3] (HEK-TREx-TAUT1 cells induced with tetracycline, ^3H-GABA radiolabel (taurine: ^3H-taurine per Example 9), 15 min, room temperature) of 10 µM. Also, the radiolabel uptake on TAUT1 [3] (^3H-taurine as radiolabel in HEK-TREx-TAUT1 cells, in a very short time) is given as > 25 % of the input cpm. In addition, at TAUT1 [3] (^3H-taurine substrate, unlabeled taurine competitor, cells induced to express TAUT1 (FIG. 7)), the “uptake of labeled taurine with increasing unlabeled taurine” value is recorded as “the uptake of labeled taurine decreased as the concentration of unlabeled taurine increased”.
For the molecule `CC[C@]1(O)C[C@@H]2CN(CCc3c([nH]c4ccccc34)[C@@](C(=O)OC)(c3cc4c(cc3OC)N(C)[C@H]3[C@@](O)(C(=O)OC)[C@H](OC(C)=O)[C@]5(CC)C=CCN6CC[C@]43[C@@H]65)C2)C1` [^3H-vinblastine], at PgP (setting [5]), the “Apical to basolateral transport” value is “strongly increased” and the “basolateral to apical transport” value is reported as “strongly decreased”. At PgP (conclusion from transwell transport with and without verapamil), the PgP substrate status entry is listed as “substrate of PgP”.

B1: hTAUT1 (Homo sapiens) (protein)
chain: MATKEKLQCLKDFHKDILKPSPGKSPGTRPEDEAEGKPPQREKWSSKIDFVLSVAGGFVGLGNVWRFPYLCYKNGGGAFLIPYFIFLFGSGLPVFFLEIIIGQYTSEGGITCWEKICPLFSGIGYASVVIVSLLNVYYIVILAWATYYLFQSFQKELPWAHCNHSWNTPHCMEDTMRKNKSVWITISSTNFTSPVIEFWERNVLSLSPGIDHPGSLKWDLALCLLLVWLVCFFCIWKGVRSTGKVVYFTATFPFAMLLVLLVRGLTLPGAGAGIKFYLYPDITRLEDPQVWIDAGTQIFFSYAICLGAMTSLGSYNKYKYNSYRDCMLLGCLNSGTSFVSGFAIFSILGFMAQEQGVDIADVAESGPGLAFIAYPKAVTMMPLPTFWSILFFIMLLLLGLDSQFVEVEGQITSLVDLYPSFLRKGYRREIFIAFVCSISYLLGLTMVTEGGMYVFQLFDYYAASGVCLLWVAFFECFVIAWIYGGDNLYDGIEDMIGYRPGPWMKYSWAVITPVLCVGCFIFSLVKYVPLTYNKTYVYPNWAIGLGWSLALSSMLCVPLVIVIRLCQTEGPFLVRVKYLLTPREPNRWAVEREGATPYNSRTVMNGALVKPTHIIVETMM
On to B1, for which the Michaelis-Menten constant (Km) in series [4] is 270 µM and 200 µM.
